This note sets out measurements from patent US9056923B2, “Mimetic peptides derived from collagen type IV and their use for treating angiogenesis- and lymphagiogenesis-dependent diseases” (THE JOHNS HOPKINS UNIVERSITY, priority 2010, dated 2015).

“Also recorded” adds a separate entry of the source. Where two headings read alike, the source gives them in different places. Ends that are not written are not given here.

In test [1] the test system is HUVEC. Type of test: cell-based, human. Put shortly:
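HUVEC plated at 2000 cells/well overnight, then exposed to peptides in fully supplemented medium for three days. WST-1 added in serum-free EBM-2 for four hours and absorbance read at 450 nm. Percent live cells taken relative to untreated cells in complete medium with 0.2% DMSO.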

The test system of test [2] is microvascular endothelial cells (MEC). As to the kind of experiment: MEC migration assay. It is filed as cell-based. On the procedure: (§1) The inhibitory potential of the peptides was measured using a real time migration assay system based on electrical impedance (RT-CIM, ACEA Biosciences, CA). CIM 16 well plates (Roche, 05665817001) are composed of a top and bottom chamber separated by a microporous (8 μm) polycarbonate membrane. The membrane was coated with fibronectin (20 μg/mL), and 45,000 cells/well in serum free media with or without peptides were added to the top compartment. Media with chemoattractant (i.e., fully supplemented EBM-2) was added to the bottom compartment of the chamber and the plate was incubated at 37° C. for 20 hours. The sensors integrated on the bottom side of the membrane monitor and continuously record changes in impedance as the cells move through the membrane. The RT-CIM technology allows for easy quantification of cell migration by monitoring the cell index derived from the measured impedances. Assays were performed in at least two independent replicates and each replicate was performed using two experimental duplicates.

Test [3] concerns lymphatic endothelial cells (LEC). The experiment in a line: LEC migration assay. Type of test: cell-based. Here is the method:
as §1

The subject of test [4] is HUVEC. The experiment in a line: HUVEC migration assay (RT-CIM). It is filed as cell-based, human. A digest of the protocol: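 Real-time impedance (RT-CIM) transwell migration through fibronectin-coated (20 μg/mL) 8 μm membranes; 45,000 cells/well in serum-free medium ± peptides, fully supplemented EBM-2 as chemoattractant below. Cell index recorded over 20 h at 37 °C; ≥2 independent replicates, each in duplicate.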

The subject of test [5] is choroidal neovascularization. The experiment in a line: Laser-induced choroidal neovascularization model. It is filed as in vivo, C57BL/6 mice. As to conditions: 0.01, 0.1, or 1 μg into the mouse eye. Here is the method:
The ocular laser-induced choroidal neovascularization (NV) model of wet age-related macular degeneration was used for testing. 5-6-week-old female pathogen-free C57BL/6 mice were anesthetized with ketamine hydrochloride (100 mg/kg body weight) and pupils were dilated. Laser photocoagulation (75-μm spot size, 0.1-sec duration, 120 mW) was performed in the 9, 12, and 3 o'clock positions of the posterior pole of each eye with the slit lamp delivery system of an OcuLight GL diode laser (Iridex, Mountain View, Calif.) and a handheld cover slip as a contact lens to view the retina. Production of a tissue bubble by the laser, which indicates rupture of Bruch's membrane, is an important factor in obtaining choroidal NV; therefore, only burns in which a bubble is produced are included in the study. […] At day 7 the mice that received the naked peptides were dosed again whereas the mice that received the particles were administered PBS. Intravitreous injections were done under a dissecting microscope with a Harvard Pump Microinjection System and pulled glass micropipettes. After 14 days, the mice were perfused with 1 mL of PBS containing 50 mg/mL of fluorescein-labeled dextran (2×10^6 Daltons average molecular weight; Sigma-Aldrich, St. Louis, Mo.) and choroidal flat mounts were examined by fluorescence microscopy. Images were captured with a Nikon Digital Still Camera DXM1200 (Nikon Instruments Inc., New York, N.Y.). Image analysis software (Image-Pro Plus; Media Cybernetics, Silver Spring, Md.) was used to measure the total area of choroidal NV at each rupture site with the investigator masked with respect to treatment group.

Test [6] concerns MDA-MB-231 breast cancer cells. As to the kind of experiment: MDA-MB-231 wound healing type migration assay (Oris Pro). It is filed as cell-based. On the procedure:
Breast cancer cells MDA-MB-231 are not suitable for the RT-CIM type experiments due to their thin elongated phenotype, thus the inhibition of migration was investigated using a wound healing type assay. This assay was performed using the Oris Pro Migration assay (Platypus Technologies, CMA 1.101). Briefly, 20,000-25,000 cells/well in full media were added to the 96 well plate containing stoppers to block migration of cells to the center region of the wells. Cells were allowed to adhere for 4 hours, after which the stoppers were removed. Cells were washed one time with PBS and fully supplemented media, with or without compound, was added to the wells. […], cells were stained with calcein AM (0.5 μg/mL) (Invitrogen, CA) and the cells that migrated to the center of the well were quantified by fluorescence intensity measured using a Victor V plate reader (Perkin Elmer) and also imaged using a Leica or Nikon microscope.

Test [7] relates to MDA-MB-231 breast cancer cells. As to the kind of experiment: MDA-MB-231 adhesion assay. Type of test: cell-based. On the procedure:
(§2) Similar to the migration assays, the inhibition activity of the peptide in cellular adhesion was assessed using the RT-CIM technology. In this case, 25,000 cells/well were plated in 16 wells E-plates (Roche, Basel Switzerland) in the presence or absence of the peptide. The adhesion was monitored over time (3 hours) by measuring changes in the electrical impedance, which is a direct measure of the cells adhering on the electrodes. […] Assays were performed in at least two independent replicates and each replicate was performed using two experimental duplicates.

Test [8] deals with VEGF mediated retinal neovascularization. The experiment in a line: Rho/VEGF transgenic mice model of retinal neovascularization. It is filed as in vivo. The following applies: 0.01, 0.1, or 1 μg into the mouse eye. Here is the method: The ocular Rho/VEGF transgenic mice model of wet age-related macular degeneration also was used to test some of the peptides. Transgenic mice in which the rhodopsin promoter drives expression of VEGF in photoreceptors have the onset of VEGF production at P7 and develop extensive NV along the outer surface of the retina by P21 (Okamoto et al., 1997; To be et al., 1998). Mice hemizygous for the transgene (n=15 for each dose) were given an intraocular injection of 1 μl of PBS containing 0.01, 0.1, or 1 μg of peptide or scramble peptide in one eye at P7 and P14 and at P21 the mice were anesthetized, perfused with fluorescein-labeled dextran, and the total area of neovascularization on the outer surface of the retina was measured on retinal flat mounts by image analysis as above.

The subject of test [9] is lymphatic endothelial cells (LEC). As to the kind of experiment: LEC adhesion assay. It is filed as cell-based. On the procedure: as §2

For LRRFSTMPFMFININNVINF-NH2 [SP2024], the IC50 in test [1] was found to be 1.29 µM; in test [1] (HUVEC, tables 5, 8-10 and text, read-out: IC50 ± 95% CI (μM), proliferation), 7.45 ± 5.7 µM. Moreover, the “Activity in Proliferation” value in test [1] (HUVEC, Yes/No summary) was “Yes”. Moreover, the “inhibition of migration of MEC” value in [2] is “quite active”. Besides, the “inhibition of migration of LEC” value in test [3] is listed as “strong”. In test [4] (5 uM peptide), the “Migration Inhibition (5 uM)” value was determined as 37.73%. Besides, the “Activity in Migration” value in test [4] (Yes/No summary, active = inhibitory potential greater than 30%) is reported as “Yes”. Moreover, in test [5], the “area of choroidal neovascularization” value is “generally decreased”. Also, the “inhibition of migration of MDA-MB-231 cells” value in test [6] is reported as “strong; also recorded: inhibition of cell migration”. Besides, the “inhibition of adhesion of MDA-MB-231 cells” value in test [7] is listed as “strong; also recorded: inhibition of cell adhesion”. For the same substance, in test [8], the “area of retinal neovascularization” value was “generally decreased”. In addition, in [9], the “inhibition of adhesion of LEC” value is on record as “strong”.
